Results: patent US20260325485A1, “COMPOSITIONS AND METHODS FOR TREATING PANCREATITIS” (The United States Government as represented by the …, priority 2022, published 2026)

How the values were obtained:
trypsin = assay: Trypsin activity in Gnptab−/− acinar cells; type: cell-based, mouse; details: 3 hours; 50 μM CA-074Me or 20 nM BafA1
Protocol: FIGS. 6A-6R show mechanisms mediating increased trypsin activity in Gnptab−/− pancreas. Trypsin activity and its regulation were analyzed in pancreatic (A, C, and D) tissue, (B and P-R) acinar cells, (E-H and O) lobules, and (I-N) subcellular fractions. In B, acinar cells were incubated for 3 hours without and with 20 nM BafAl or 50 μM CatB inhibitor CA-074Me; in P-R, with the cholesterol chelator methyl-β-cyclodextrin (MCD) at the indicated concentrations. In E-H, pancreatic lobules were double stained for TAP and LC3 or LAMP2; in O, for TAP and filipin. Quantitative colocalization analysis was done as detailed in FIG. 2. Each symbol in A, B, J-N, Q, and R represents an individual mouse or cell preparation (n=3-8 per condition). Each symbol in D, G, and H corresponds to 20 to 30 cells in a different field (n=9-20 fields from 3 WT and 3 KO mice or lobule preparations). Values are mean±SEM. **P<0.01, ***P<0.001 vs. WT tissue/lobules (A, G, and H) or corresponding WT subcellular fraction (K and M). ##P<0.01 vs. no inhibitors (B) or MCD (Q and R). ††P<0.01, †††P<0.001 vs. the other two fractions (L and N). Significance was determined by 2-tailed Student's t test (A, G, and H) or 1-way ANOVA followed by Tukey's multiple comparison test (B, K-N, Q, and R). Scale bars: 10 μm.
Activities of cathepsin (Cat) B and L, caspase-3, trypsin, and lysosomal acid lipase (LAL) were measured in pancreatic tissue or cell homogenates and subcellular fractions with fluorogenic assays using substrates specific for CatB (Z-Arg-Arg-AMC), CatL (Z-Phe-Arg-AMC), caspase-3-like ([…]), trypsin (Boc-Gln-Ala-Arg-AMC), as previously described (1-4, 6, 7); and for LAL (4-methylumbelliferyl oleate), as in (17). In measurements of CatL activity, the assay buffer also contained 50 μM CA-074me, a CatB inhibitor. LAL activity was measured in the absence and presence of the LAL inhibitor lalistat (100 μM) as the difference between these values (17).

[1] = tested on: cerulein pancreatitis (CER-AP); assay: Drug treatment of cerulein pancreatitis (CER-AP) in WT mice; type: in vivo, mouse
Protocol: FIGS. 10A-10N show deranged cholesterol metabolism causes acinar cell damage, while its normalization ameliorates experimental pancreatitis. (A-D) Cholesterol content and trypsin activity were measured (per mg protein) in WT mouse acinar cells incubated for 1 hour without and with methyl-β-cyclodextrin (MCD; 10 mM) or cholesterol-loaded MCD (MCD-Chol; 200 μg/mL), in the presence or absence of 100 nM CCK. Values are expressed relative to those in cells without MCD/MCD-Chol. (E-J) WT mice received daily i.p. injections of the LXR agonist T0901317 (T09), simvastatin (Sim; 20 mg/kg each), or vehicle. On day 4, mice were subjected to CER-AP and pancreata collected for analyses (see also FIG. 20). Cholesterol content (E), trypsin activity (F), and pancreas histopathology (H&E staining; G) were measured. (H, I, L, and N) IB analysis of markers/mediators of autophagy (LC3, p62), ER stress (CHOP, GRP-78), and mitophagy (Parkin). Ub, ubiquitylated proteins. (J) Mitochondrial fragmentation was assessed by immunostaining for Tom20, as detailed in FIG. 7G. (K and L) Mouse acinar cells were treated for 16 hours with LDL (30 μg/mL) or the combination of LDL and 10 μM U18666A. (M and N) Mice received injections of U18666A as detailed in FIG. 9B. Pancreas histopathology (H&E staining; M) and levels of autophagy markers/mediators (N) were measured. Each symbol in A-F and I represents an individual mouse or cell preparation. Values are mean±SEM from 3 to 7 mice or cell preparations per condition. ^§ P<0.05, ^§§ P<0.01 vs. control cells (without MCD/MCD-Chol). ***P<0.001 vs. saline-treated mice. ^#P<0.05, ^##P<0.01, ^###P<0.001 vs. CER-AP alone (no inhibitors). Significance was determined by 2-tailed Student's t test (A-D) or 1-way ANOVA followed by Tukey's multiple comparison test (E, F, and I). Scale bars: 10 μm.
FIGS. 20A-20C show simvastatin improves cerulein pancreatitis. Mice received daily i.p. injections of simvastatin (Sim; 20 mg/kg) or vehicle (see FIG. 10), and on day 4 were subjected to cerulein pancreatitis (CER-AP). (A) Pancreas histopathology (H&E staining; scale: 10 μm). (B) IB analysis of markers/mediators of autophagy (LC3, p62), ER stress (CHOP), and the MLN64/STARD3 protein mediating cholesterol transfer from LE/Ly to mitochondria. Each IB lane represents an individual mouse; ERK1/2 is the loading control. […] Ub, ubiquitylated proteins. (C) Pancreatitis responses. Values are mean±SEM from 7-13 mice for each condition. ***p<0.001 vs saline control. ^###p<0.001 vs CER-AP alone (no simvastatin). Significance was determined by 1-way ANOVA followed by Tukey's multiple comparisons test.
FIGS. 25A-25C show reducing cholesterol overload greatly ameliorates experimental pancreatitis. CER-AP responses were measured in (A) AclyAac or (C) WT mice treated with simvastatin or bempedoic acid (BemA). (B) Acinar cells were transfected with ACLA (or mock) siRNA and subjected to ex-vivo CCK-AP. Each symbol represents an individual mouse or cell preparation. Values are mean±SE. **p<0.01, ***p<0.001 vs saline treated control mice (or mock transfection); #p<0.05, ##p<0.01, ###p<0.001 vs CER/CCK-AP in control mice (i.e. without inhibitors) or cells.
Cerulein-induced (CER-AP) and L-arginine induced (Arg-AP) acute pancreatitis models were performed in 12-week-old C57BL/6 mice that received 7 hourly i.p. injections of 50 μg/kg cerulein or 3 hourly i.p. injections of 3.3 g/kg Arg; controls received physiologic saline injections. Mice were euthanized for analyses 7 hours after the first cerulein or 24 hours after the first Arg injection. Choline deficient, ethionine-supplemented (CDE) pancreatitis was induced in young (~5-weeks old) female mice fed either CDE or control diet. Mice were euthanized 72 hours after the diet initiation. These models have been described in detail (1-7).
12-week-old WT mice were subjected for 4 consecutive days to daily i.p. injections of 20 mg/kg simvastatin (8,9) or 20 mg/kg T0901317 (10); or 10 mg/kg U18666A for 15 days (11). […]

pancreas = assay: Drug treatment of Gnptab−/− mice: pancreatic total cholesterol; type: in vivo, mouse
Protocol: 12-week-old Gnptab−/− mice were subjected to daily i.p. injections of 20 mg/kg simvastatin or the same dose of T0901317 for 4 or 21 days.
Total cholesterol content was measured with Cholesterol Assay kit per manufacturer's instructions. Samples of mouse pancreas and liver, cell pellet homogenates, subcellular fractions, isolated mitochondria, and serum were diluted in the reaction buffer containing cholesterol probe and incubated at 37° C. for 1 h in the dark. To measure total cholesterol, the samples were subjected to digestion with cholesterol esterase. To measure non-esterified cholesterol, the esterase was omitted from the assay.

acinar cells = assay: Oxygen consumption rate (OCR) of acinar cells, Seahorse; type: cell-based, mouse; details: etomoxir 40 μM
Protocol: FIGS. 7A-7Q show Gnptab ablation causes mitochondrial dysfunction in the pancreas. Mitochondrial functional parameters were measured in mitochondria isolated from pancreas (A, D, J, and M) or liver (N-P), in acinar cells (B, C, and I), and pancreatic (E-H, K, and L) and liver (Q) tissues of WT and KO mice. (A and N) Activities of mitochondrial ETC complexes I, II, IV, and V. (B, C, and I) Acinar cell oxygen consumption rates (OCR), reflecting mitochondrial OXPHOS, were measured in basal conditions and after treatment with the B-oxidation inhibitor etomoxir (40 μM), and normalized to total protein in the sample. (B) Representative OCR tracings in acinar cell suspension subjected to consecutive injections of the ATP synthase inhibitor oligomycin (Oligo; 3 μM), protonophore FCCP (2.7 μM), and […] rotenone plus antimycin A (R+A, 5 μM each; to correct for nonmitochondrial respiration). (C and I) ATP-linked respiration was calculated as the difference between basal OCR and that in Oligo-treated cells; the maximal OCR was obtained in FCCP-treated cells. (D and O) Mitochondrial membrane potential (ΔΨm) was measured with a tetraphenyl phosphonium ion (TPP+) electrode. FCCP (5 μM) was added to completely dissipate ΔΨm. (E) ATP was measured in pancreatic tissue homogenate with luciferin-luciferase assay. […] (G) Mitochondrial fragmentation was assessed by changes in Tom20 or VDAC immunostaining pattern, from an interconnected tubular mitochondrial network in WT to a predominantly disjoined/circular one in KO pancreas. […] (K) Long-chain acylcarnitines were measured with LC-MS/GC-MS. […] Significance was determined by 2-tailed Student's t test.
Oxygen consumption rates (OCR) were measured in live acinar cells using Seahorse XFe96, as in (15). […] In all within-set experiments the same volume of cell suspension were used with the same amount of protein; and partial oxygen pressure was monitored to ensure its stability in the cell suspension.

[2] = CER-AP, T0901317 or simvastatin 20 mg/kg i.p. daily

With `CCCNC(=O)[C@H]1O[C@@H]1C(=O)N[C@H](C(=O)N1CCC[C@H]1C(=O)OC)[C@@H](C)CC` [CA-074Me] the “Reduction of trypsin activity, Gnptab−/− acinar cells” value (trypsin) was “by half”.

For `O=S(=O)(c1ccccc1)N(CC(F)(F)F)c1ccc(C(O)(C(F)(F)F)C(F)(F)F)cc1` [T0901317], the “CER-induced increase in MLN64” value ([1]; CER-AP, 20 mg/kg i.p. daily) was “abrogated”, the “accumulation of LC3-II” value ([1]; CER-AP, 20 mg/kg i.p. daily) was “reduced” and the “accumulation of p62” value ([1]; CER-AP, 20 mg/kg i.p. daily) was “reduced”. The “accumulation of ubiquitylated proteins” value ([1]; CER-AP, 20 mg/kg i.p. daily) was “reduced”, the “mitochondrial fragmentation (Tom20 IF)” value ([1]; CER-AP, 20 mg/kg i.p. daily) was “normalized” and the CHOP levels ([1]; CER-AP, 20 mg/kg i.p. daily, ER stress) was “decreased”. The “pancreatitis-induced increase in total cholesterol” value [1, 2] was “eliminated”, the “pancreatitis-induced increase in trypsin activity” value [1, 2] was “eliminated” and the “pancreas histopathology in CER-AP” value ([1]; H&E, 20 mg/kg i.p. daily) was “improved”. For the same molecule, the “pathologic responses of experimental pancreatitis (impaired autophagy, ER stress and others)” value ([1]; discussion statement) was “reduced”, the “experimental pancreatitis in WT mouse and ex vivo models” value ([1]; overall result) was “ameliorated” and the “total cholesterol content in pancreas, Gnptab−/− mice” value (pancreas; 20 mg/kg i.p. daily for 4 or 21 days) was “Neither treatment changed”. For the same molecule, the “pancreatic total cholesterol, Gnptab−/− mice” value (pancreas; even for 3 weeks) was “failed to decrease”.

In the case of `CCOC(=O)[C@@]1(CCCCCCOc2ccc(Cl)cc2)CO1` [etomoxir], the “respiration rates, KO” value (acinar cells; Gnptab−/− (KO) acinar cells) is reported as “not significantly reduced”, the “ATP-linked OCR, WT” value (acinar cells; WT acinar cells) is reported as “inhibition” and the “basal OCR, WT” value (acinar cells; WT acinar cells) is reported as “inhibition”.
